Measurements reported in ChEMBL document CHEMBL1201862, “PubChem BioAssay data set” (2004).
Activity calls are given as the source filed them.

Key:
[1] = biological target: T1, Insulin-degrading enzyme (Homo sapiens, UniProt P14735); test: cellular IDE activation of Abeta substrate cleavage – fluorescence polarization, HEK cells, dose response (AID 588439); assay type: functional, cell-based
T1 sequence (P14735 whole entry): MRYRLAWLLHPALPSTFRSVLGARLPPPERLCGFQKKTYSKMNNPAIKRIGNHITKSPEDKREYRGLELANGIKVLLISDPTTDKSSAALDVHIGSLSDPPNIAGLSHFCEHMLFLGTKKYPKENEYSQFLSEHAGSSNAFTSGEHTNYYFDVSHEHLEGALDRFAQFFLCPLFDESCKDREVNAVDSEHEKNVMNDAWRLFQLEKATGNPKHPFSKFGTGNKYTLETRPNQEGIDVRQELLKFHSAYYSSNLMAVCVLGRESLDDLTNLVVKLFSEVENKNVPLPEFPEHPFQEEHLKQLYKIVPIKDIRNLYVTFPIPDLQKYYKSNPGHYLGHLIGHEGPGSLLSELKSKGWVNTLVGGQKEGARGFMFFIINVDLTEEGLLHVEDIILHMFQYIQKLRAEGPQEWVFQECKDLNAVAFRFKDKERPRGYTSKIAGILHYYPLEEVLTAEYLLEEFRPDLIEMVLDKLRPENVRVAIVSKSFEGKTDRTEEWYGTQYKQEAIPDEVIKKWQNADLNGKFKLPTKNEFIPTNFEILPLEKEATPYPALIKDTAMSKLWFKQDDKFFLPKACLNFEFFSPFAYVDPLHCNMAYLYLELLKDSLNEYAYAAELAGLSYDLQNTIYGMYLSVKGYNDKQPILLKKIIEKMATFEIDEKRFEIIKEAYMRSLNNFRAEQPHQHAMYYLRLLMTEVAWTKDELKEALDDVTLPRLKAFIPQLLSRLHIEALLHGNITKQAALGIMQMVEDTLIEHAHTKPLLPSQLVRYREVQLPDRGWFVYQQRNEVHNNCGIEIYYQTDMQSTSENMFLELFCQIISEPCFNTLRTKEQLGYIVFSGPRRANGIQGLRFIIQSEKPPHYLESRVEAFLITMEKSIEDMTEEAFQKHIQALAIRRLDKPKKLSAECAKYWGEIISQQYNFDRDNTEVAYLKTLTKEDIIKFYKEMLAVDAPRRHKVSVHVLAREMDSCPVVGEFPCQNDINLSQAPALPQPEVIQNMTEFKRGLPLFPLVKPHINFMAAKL

[2] = test system: HEK293; test: membrane integrity loss in HEK cells – cell-based, fluorescence, cytotoxicity control for IDE activator project, dose response (AID 588440); assay type: functional; details: Homo sapiens;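 note: cytotoxicity by LDH release measuring loss of membrane integrity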
[3] = test system: HEK293; test: optical interference in Abeta FP readout, dose response, artefact control for IDE activator project, biochemical, fluorescence polarization (AID 588442); assay type: functional, cell-based; details: Homo sapiens
[4] = biological target: T1, Insulin-degrading enzyme; test: recombinant IDE activation, cell-free – biochemical, fluorescence polarization, counter-screen for IDE activator project, dose response (AID 588681)
[5] = biological target: T2, Corticotropin-releasing factor receptor 2/Corticotropin-releasing factor-binding protein (Homo sapiens, UniProt P24387+Q13324); test: Dose Response confirmation of uHTS hits for small molecule antagonists of the CRF-binding protein and CRF-R2 receptor complex.; assay type: functional; details: read-out: IC50_Mean
T2 sequence (Q13324 whole entry): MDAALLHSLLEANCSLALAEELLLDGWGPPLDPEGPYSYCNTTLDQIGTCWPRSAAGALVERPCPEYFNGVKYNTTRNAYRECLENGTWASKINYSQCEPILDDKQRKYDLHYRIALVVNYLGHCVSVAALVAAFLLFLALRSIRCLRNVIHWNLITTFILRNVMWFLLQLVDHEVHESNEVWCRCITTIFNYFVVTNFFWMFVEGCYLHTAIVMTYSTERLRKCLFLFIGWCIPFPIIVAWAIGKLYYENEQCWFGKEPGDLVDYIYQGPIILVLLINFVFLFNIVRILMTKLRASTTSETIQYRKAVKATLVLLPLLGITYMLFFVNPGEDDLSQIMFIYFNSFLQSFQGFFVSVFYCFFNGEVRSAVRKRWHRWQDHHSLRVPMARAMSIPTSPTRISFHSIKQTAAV
T2 sequence (P24387 whole entry): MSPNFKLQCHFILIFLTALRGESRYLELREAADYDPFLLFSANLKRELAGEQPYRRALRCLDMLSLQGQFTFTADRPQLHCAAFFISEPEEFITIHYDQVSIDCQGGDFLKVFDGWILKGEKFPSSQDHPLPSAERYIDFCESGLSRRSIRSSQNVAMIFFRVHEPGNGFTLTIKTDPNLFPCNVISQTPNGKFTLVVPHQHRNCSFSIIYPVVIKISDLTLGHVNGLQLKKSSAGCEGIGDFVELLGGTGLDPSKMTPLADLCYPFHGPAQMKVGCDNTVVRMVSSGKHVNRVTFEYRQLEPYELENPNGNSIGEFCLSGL

[6] = biological target: T2, Corticotropin-releasing factor receptor 2/Corticotropin-releasing factor-binding protein; test: activators of CRF receptor 2 with binding protein – uHTS hits, confirmation (AID 602473); assay type: functional; details: read-out: EC50_Mean
[7] = blockers of CRF-binding protein–CRF-R2 complex – cell-based, uHTS hits, 384-well, dose response (AID 651639); assay type: functional, Homo sapiens; details: read-out: IC50_Mean
[8] = biological target: Prothrombin (Homo sapiens, UniProt P00734); test: Thrombin 1536 HTS Dose Response Confirmation. [Related pubchem assays: 1046 (Thrombin 1536 HTS; hits were confirmed in this assay)]; assay type: functional
[9] = test system: INS1; test: INS-1E survival protection against cytokine death – cell-based, luminescence, retest, dose response (AID 449756); assay type: functional; details: Rattus norvegicus;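 note: cell death triggered by IL-1 beta plus TNF-alpha plus IFN-gamma mixture; protective hits raise ATP signal compared with cytokine alone wells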
[10] = cells; assay type: functional
[11] = THP-1 cell cytotoxicity, dose response, cytotoxicity control for non-replicating M. tuberculosis project (AID 489025); assay type: functional
[12] = Vero E6 cell cytotoxicity, dose response, cytotoxicity control for non-replicating M. tuberculosis project, secondary assay (AID 492998); assay type: functional, VeroE6; details: Vero C1008
[13] = biological target: T3, Bcl-2-like protein 10 (Homo sapiens, UniProt Q9HD36); test: Bcl-B/TR3 peptide binding disruption – biochemical, fluorescence polarization, FITC-TR3 peptide, selectivity assay for Bfl-1 inhibitor project, primary screen (AID 748);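 note: fluorescence polarization from a fluorescein-labelled TR3 peptide binding purified Bcl-B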
T3 sequence (Q9HD36 whole entry): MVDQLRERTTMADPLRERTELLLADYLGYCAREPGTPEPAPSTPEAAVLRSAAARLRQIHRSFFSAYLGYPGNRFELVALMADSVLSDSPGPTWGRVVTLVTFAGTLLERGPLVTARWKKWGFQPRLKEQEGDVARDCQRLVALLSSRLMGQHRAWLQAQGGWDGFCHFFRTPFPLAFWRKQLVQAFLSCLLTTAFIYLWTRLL

[14] = biological target: Induced myeloid leukemia cell differentiation protein Mcl-1 (Homo sapiens, UniProt Q07820); assay type: functional
Sequence of Induced myeloid leukemia cell differentiation protein Mcl-1 (Q07820 whole entry): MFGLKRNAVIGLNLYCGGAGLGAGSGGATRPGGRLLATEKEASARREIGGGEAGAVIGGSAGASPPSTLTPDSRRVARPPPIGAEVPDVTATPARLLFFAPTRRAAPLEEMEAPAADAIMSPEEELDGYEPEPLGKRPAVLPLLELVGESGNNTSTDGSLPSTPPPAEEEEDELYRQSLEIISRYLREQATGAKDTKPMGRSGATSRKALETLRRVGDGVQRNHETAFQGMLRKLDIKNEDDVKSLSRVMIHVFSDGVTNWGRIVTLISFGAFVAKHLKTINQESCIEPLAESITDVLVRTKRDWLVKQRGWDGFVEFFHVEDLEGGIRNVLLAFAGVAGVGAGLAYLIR

[15] = biological target: T4, Ubiquitin-conjugating enzyme E2 N (Homo sapiens, UniProt P61088); assay type: functional;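 note: Dose-response confirmation in a TR-FRET assay detecting UBC13-driven polyubiquitin chain formation, inhibition measured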
T4 sequence (P61088 whole entry): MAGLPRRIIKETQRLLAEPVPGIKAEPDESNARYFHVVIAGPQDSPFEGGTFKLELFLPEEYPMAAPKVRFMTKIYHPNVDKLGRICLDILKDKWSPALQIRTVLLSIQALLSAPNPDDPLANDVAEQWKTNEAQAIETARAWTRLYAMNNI

[16] = biological target: T5, DNA repair protein RAD52 homolog (Homo sapiens, UniProt P43351); assay type: functional, biochemical
T5 sequence (P43351 whole entry): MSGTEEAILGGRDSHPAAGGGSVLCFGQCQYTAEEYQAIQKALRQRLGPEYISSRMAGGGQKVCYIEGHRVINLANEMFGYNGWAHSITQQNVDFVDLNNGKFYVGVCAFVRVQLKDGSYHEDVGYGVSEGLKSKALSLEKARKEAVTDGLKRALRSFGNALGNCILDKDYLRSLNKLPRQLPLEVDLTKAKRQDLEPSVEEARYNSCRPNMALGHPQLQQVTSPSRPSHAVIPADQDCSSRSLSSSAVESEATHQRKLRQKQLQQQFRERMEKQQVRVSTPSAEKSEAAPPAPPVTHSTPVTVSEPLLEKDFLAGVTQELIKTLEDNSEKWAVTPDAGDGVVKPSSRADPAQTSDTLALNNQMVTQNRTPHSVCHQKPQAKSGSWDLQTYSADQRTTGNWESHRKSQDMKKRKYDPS

[17] = HIV-1 AD8 envelope cell-cell fusion blockers – cherry-pick, dose response (AID 652062); assay type: functional, cell-based;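 note: luciferase signal from cell-cell fusion driven by HIV-1 clade B AD8 Env; potency is for inhibitors of fusion seen as a drop in luminescence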
[18] = biological target: Paired box protein Pax-8 (Homo sapiens, UniProt Q06710); test: PAX8 transcriptional activity inhibition in RMG-I – RMG-I cells, luciferase, cherry-pick, dose response (AID 687027); assay type: functional, cell-based;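 note: luciferase reporter driven by Pax8 target thyroperoxidase promoter measured by SteadyGlo luminescence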
Sequence of Paired box protein Pax-8 (Q06710 whole entry): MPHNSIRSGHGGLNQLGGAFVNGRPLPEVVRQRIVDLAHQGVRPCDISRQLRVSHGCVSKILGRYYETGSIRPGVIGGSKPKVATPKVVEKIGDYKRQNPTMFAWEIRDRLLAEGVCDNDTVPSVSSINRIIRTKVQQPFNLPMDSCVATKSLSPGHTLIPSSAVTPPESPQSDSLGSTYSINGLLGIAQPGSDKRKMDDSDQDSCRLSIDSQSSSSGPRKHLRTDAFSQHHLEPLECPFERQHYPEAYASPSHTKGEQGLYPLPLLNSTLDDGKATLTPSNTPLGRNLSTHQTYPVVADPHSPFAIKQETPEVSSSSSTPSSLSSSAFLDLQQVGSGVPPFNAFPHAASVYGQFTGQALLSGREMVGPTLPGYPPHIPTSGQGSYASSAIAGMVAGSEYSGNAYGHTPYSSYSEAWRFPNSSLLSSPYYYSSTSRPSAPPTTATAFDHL

[19] = OVCAR-3 cell viability loss – plate reader, dry powder samples, PAX8 inhibitor project, dose response (AID 743044); assay type: functional, cell-based
[20] = blockers of HIV-1 envelope-mediated cell-cell fusion – cherry-pick, dose response (AID 652057); assay type: functional, cell-based
[21] = blockers of HIV-1 ZM109 envelope-driven cell-cell fusion – HeLa effector, CEM target cells, luciferase, cherry-pick, dose response (AID 652058); assay type: functional, cell-based;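 note: luciferase signal from HIV-1 Env mediated cell-cell fusion of effector and target cells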
[22] = general cell-killing toxicity readout – plate reader, dry powder samples, cytotoxicity control for PAX8 inhibitor project, dose response (AID 743021); assay type: functional, cell-based
[23] = biological target: Eukaryotic translation initiation factor 4E (Mus musculus, UniProt P63073); test: blockers of eIF4G binding by eIF4E – biochemical, TR-FRET, dose response (AID 855); assay type: functional;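 note: potency for disrupting eIF4E binding to eIF4GI seen as loss of FRET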
Sequence of Eukaryotic translation initiation factor 4E (P63073 whole entry): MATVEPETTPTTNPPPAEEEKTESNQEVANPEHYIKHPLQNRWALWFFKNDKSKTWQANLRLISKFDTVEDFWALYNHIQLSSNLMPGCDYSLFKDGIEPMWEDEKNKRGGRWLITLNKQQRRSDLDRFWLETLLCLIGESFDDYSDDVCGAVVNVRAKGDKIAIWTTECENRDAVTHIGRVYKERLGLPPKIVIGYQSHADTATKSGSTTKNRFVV

For Nc1cc(N)nc(SCCOc2ccccc2)n1, the EC50 [1] was > 54.7 µM (inactive), the IC50 [2] was > 89.2 µM (inactive) and the EC50 [3] was > 55.9 µM (inactive). The EC50 [4] was > 54.7 µM (inactive).

For CN(C)c1ccc(C=C2C(=O)OC(C)(C)OC2=O)cc1, the IC50 [5] was 5.16 µM (active), the EC50 [6] was > 53 µM (inactive) and the IC50 [7] was 7.91 µM (active).

In the case of O=C(COC(=O)CCC(=O)c1cccs1)Nc1ccccc1[N+](=O)[O-], the IC50 [8] is reported as 6.93 µM (active).

For Cc1cc(C)nc(-n2nc(C)cc2Nc2ccccc2)n1, the IC50 [8] was > 50 µM (not active), the AC50 [9] was 2.91 µM (active) and the IC50 [10] was 0.5 µM (active). The CC50 [11] was > 40 µM (active) and the CC50 [12] was > 20 µM (active).

For Cn1c(C(C#N)C2=C(Cl)C(=O)N(c3ccccc3)C2=O)nc2ccccc21 (stereo unspecified), the IC50 [13] was 16.5 µM (active).

For CN(c1ccccc1)S(=O)(=O)c1cccc(NC(=O)COc2cccc([N+](=O)[O-])c2)c1, the EC50 [1] was > 54.7 µM (inactive), the IC50 [5] was > 23.6 µM (inactive) and the EC50 [6] was > 53 µM (inactive). The IC50 [7] was > 20 µM (inactive), the IC50 [2] was > 89.2 µM (inactive) and the EC50 [3] was > 55.9 µM (inactive). For the same molecule, the EC50 [4] was > 54.7 µM (inactive).

For CCCCC[C@@H]1C=C(C(=O)O)[C@H](c2cccc(C)c2)N1S(=O)(=O)c1ccc(C)cc1, the IC50 [5] was 36.6 µM (active), the EC50 [6] was 40.7 µM (active) and the IC50 [7] was > 20 µM (inactive).

In the case of Cc1ccc(OCC(=O)Nc2ccc(N3CCCC3)cc2)cc1C, the IC50 [13] is reported as 40.8 µM (active) and the IC50 [14] is reported as 6.68 µM (active).

With COc1ccc(N2C(=O)/C(=C/Nc3ccccc3)c3ccccc3C2=O)cc1 the IC50 [8] was > 50 µM (not active).

In the case of ClCCN1CCN(c2ccnc3cc(Cl)ccc23)CC1, the IC50 [15] is reported as > 20 µM (inactive) and the AC50 [16] is reported as 17.2 µM (active).

With O=c1[nH]nc(SCc2nnc(-c3ccc([N+](=O)[O-])cc3)o2)n1C1CCCCC1 the IC50 [8] was 4.04 µM (active).

In the case of CC(NC(=O)CN(C1CCCCC1)S(C)(=O)=O)c1ccccc1 (stereo unspecified), the IC50 [8] is reported as > 50 µM (not active).

For C[C@@H]1CN([C@@H](C)CO)C(=O)Cc2cc(NS(=O)(=O)c3cccs3)ccc2O[C@H]1CN(C)Cc1ccc(C(F)(F)F)cc1, the AC50 [17] was 25.8 µM (active), the AC50 [18] was 5.33 µM (active) and the AC50 [19] was 32.8 µM (active). The AC50 [20] was 10.1 µM (active) and the AC50 [21] was 1.39 µM (active).

For COc1ccc(OC)c(C(=O)COC(=O)CN2C(=O)NC3(CCCCC3C)C2=O)c1 (stereo unspecified), the EC50 [1] was > 54.7 µM (inactive), the IC50 [2] was > 89.2 µM (inactive) and the EC50 [3] was > 55.9 µM (inactive). For the same molecule, the EC50 [4] was > 54.7 µM (inactive).

In the case of CCS(=O)(=O)NCc1ccc2c(c1)cc(C)n2C, the IC50 [13] is reported as > 50 µM (inactive).

With CC(=O)Nc1ccc(Nc2nc3ccccc3nc2NS(=O)(=O)c2ccc(Cl)c([N+](=O)[O-])c2)cc1 the IC50 [5] was 6.14 µM (active), the EC50 [6] was > 53 µM (inactive) and the IC50 [7] was 10.2 µM (active).

With C[C@@H]1CN([C@H](C)CO)C(=O)c2cc(NC(=O)Nc3ccc(C(F)(F)F)cc3)ccc2O[C@@H](C)CCCCO[C@@H]1CN(C)C(=O)NC1CCCCC1 the AC50 [18] was 4.46 µM (active), the AC50 [19] was 35.7 µM (active) and the AC50 [22] was 2.66 µM (active).

For CO/N=C/C(C#N)c1ncc(C(F)(F)F)cc1Cl (stereo unspecified), the IC50 [23] was > 64 µM (inactive), the IC50 [5] was 4.92 µM (active) and the EC50 [6] was 5.81 µM (active). The IC50 [7] was 6.73 µM (active).

With Cc1ccc(S(=O)(=O)Nc2ccc3c(c2)CC(=O)N([C@H](C)CO)C[C@H](C)[C@H](CN(C)S(=O)(=O)c2ccc(F)cc2)O3)cc1 the AC50 [17] was 4.36 µM (active), the AC50 [18] was 25.3 µM (active) and the AC50 [19] was 59.2 µM (active). For the same molecule, the AC50 [20] was 5.23 µM (active) and the AC50 [21] was 5.04 µM (active).
